According to patent US9284303B2, “Benzimidazole cannabinoid agonists bearing a substituted heterocyclic group” (priority 2006, dated 2016):
Read-outs that look alike come from different tables or passages of the source.

How the values were obtained:
[1] = biological target: T1, human CB1 (hCB1) receptor (Homo sapiens, UniProt P21554); experiment: Inhibition of forskolin-activated cAMP production upon activation of hCB1 (HTRF), CHO-K1 cells; format: cell-based; conditions: CB1 pEC50, hCB1-CHO-K1 cells, forskolin-activated cAMP, pEC50=-log(EC50)
T1 construct: expressed in transfected cells; host or cells: CHO-K1
T1 sequence (P21554 whole entry): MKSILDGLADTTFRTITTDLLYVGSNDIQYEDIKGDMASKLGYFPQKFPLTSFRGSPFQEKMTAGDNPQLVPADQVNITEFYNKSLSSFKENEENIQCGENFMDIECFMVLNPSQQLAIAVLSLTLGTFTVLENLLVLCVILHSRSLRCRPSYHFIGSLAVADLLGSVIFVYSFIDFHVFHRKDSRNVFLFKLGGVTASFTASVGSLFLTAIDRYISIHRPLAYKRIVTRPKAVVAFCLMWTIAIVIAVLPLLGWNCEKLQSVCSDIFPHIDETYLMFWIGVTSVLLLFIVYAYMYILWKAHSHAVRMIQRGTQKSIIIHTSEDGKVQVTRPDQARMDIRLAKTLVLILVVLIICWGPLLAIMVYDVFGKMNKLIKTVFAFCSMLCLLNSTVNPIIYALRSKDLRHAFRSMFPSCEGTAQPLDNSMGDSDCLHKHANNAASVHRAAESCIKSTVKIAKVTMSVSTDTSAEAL
Experimental: (§1) Functional activity of the test compounds was assessed by measuring their potency to inhibit forskolin-activated cAMP production upon activation of the human CB1 (hCB1) or human CB2 (hCB2) receptor through homogenous time resolved fluorescence (HTRF) assays.
CHO-K1 cells stably transfected with either hCB1 or hCB2 were grown up to 80-90% confluence in T175 Falcon flasks in DMEM/NUT MIX F-12 culture medium complemented with 2% Solution A (5.10^6 IU/l penicillin G, 5 g/l streptomycin sulphate, 5.5 g/l pyruvate, 14.6 g/l L-glutamine, 1M NaOH) and 10% foetal calf serum. Before the experiments, medium was removed, cells were washed with PBS/EDTA (140 mM NaCl, 1 mM Naz-EDTA, 8 mM Na2HPO4.2H2O, 8.5 mM KH2PO4, 2.7 mM KCl, 21 mM glucose), resuspended in stimulation buffer (HBSS 1x, IBMX 1 mM, Hepes 5 mM, MgCl2 10 mM, BSA 0.1%, pH 7.4). Cells were diluted to a concentration of 8.10^5 cell/ml for hCB1 experiments and 10^6 cells/ml for hCB2 experiments. Assays were performed using the cAMP Dynamic HTRF kit (CIS bio international, France) according to the recommendations of the manufacturer.
For CB1, each well of a 96 flat bottom black polystyrene assay plate (Costar) was filled with 25 μl stimulation buffer containing 6 μM forskolin and either test compound (in 2% DMSO), 2% DMSO or 2 μM CP55490 (in 2% DMSO). Then, 25 μl of the diluted cells was added (20,000 cells/well). After 30 minutes incubation in dark at room temperature, 25 μl cAMP-XL665 and 25 μl anti-cAMP cryptate (both at a final dilution of 1/80) was added to the cells.
After equilibration of the reaction mixtures for 1 to 24 hours in dark at room temperature, fluorescence was measured at 665 nm and 620 nm using a Discovery microplate fluorescence counter (Perkin Elmer), and the signal ratio of 665 nm/620 nm was calculated. The signal ratios of the test compounds were expressed relative to the signal ratios of the DMSO control (maximal signal ratio, no inhibition of cAMP) and CP55490 or WIN55212-2 for hCB1 and hCB2, respectively (minimal signal ratio, maximal inhibition of cAMP). From the dose response curves generated for each test compound, the dose at which 50% of the maximal inhibition of cAMP level is observed (EC50, expressed in the Tables as pEC50=−log(EC50) values) and the level of inhibition reached with 10 μM of the test compound compared to CP55490 (for hCB1) or WIN55212-2 (for hCB2) was calculated.

[2] = biological target: T2, human CB2 (hCB2) receptor (Homo sapiens, UniProt P34972); experiment: Inhibition of forskolin-activated cAMP production upon activation of hCB2 (HTRF), CHO-K1 cells; format: cell-based; conditions: for ratio CB2 agonism over CB1 agonism: Table C-1, selectivity hCB2 over hCB1; for ratio CB2 over CB1 agonism: Table C-3, comparison of art compounds A to E with compounds of the invention; for EC50: forskolin-activated cAMP, pEC50=-log(EC50)
T2 construct: expressed in transfected cells; host or cells: CHO-K1
T2 sequence (P34972 whole entry): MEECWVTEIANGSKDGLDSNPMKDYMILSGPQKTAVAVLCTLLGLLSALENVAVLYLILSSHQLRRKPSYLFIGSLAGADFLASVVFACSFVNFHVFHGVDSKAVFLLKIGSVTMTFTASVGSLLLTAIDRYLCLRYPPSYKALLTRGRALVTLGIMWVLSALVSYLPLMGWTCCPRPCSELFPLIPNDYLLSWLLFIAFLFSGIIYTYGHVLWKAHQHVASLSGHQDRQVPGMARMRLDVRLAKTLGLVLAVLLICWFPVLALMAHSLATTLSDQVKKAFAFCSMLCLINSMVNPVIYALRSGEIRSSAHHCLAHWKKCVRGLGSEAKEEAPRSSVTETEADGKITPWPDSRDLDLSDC
Experimental: as §1
Before the experiments, medium was removed, cells were washed with PBS/EDTA (140 mM NaCl, 1 mM Naz-EDTA, 8 mM Na2HPO4.2H2O, 8.5 mM KH2PO4, 2.7 mM KCl, 21 mM glucose), resuspended in stimulation buffer (HBSS 1x, IBMX 1 mM, Hepes 5 mM, MgCl2 10 mM, BSA 0.1%, pH 7.4). Cells were diluted to a concentration of 8.10^5 cell/ml for hCB1 experiments and 10^6 cells/ml for hCB2 experiments. Assays were performed using the cAMP Dynamic HTRF kit (CIS bio international, France) according to the recommendations of the manufacturer.
Then, 20 μl of the diluted hCB2-CHO-K1 cells was added (20,000 cells/well). After 30 minutes incubation in dark at room temperature, 10 μl cAMP-XL665 and 10 μl anti-cAMP cryptate (both at a final dilution of 1/100) was added to the cells.

[3] = hCB2-CHO-K1 cells, read-out: CB2 pEC50 (converted)

Structure (SMILES)	EC50 [1] [nM]	melting point [°C]	ratio CB2 agonism over CB1 agonism [2]	ratio CB2 over CB1 agonism [2]	EC50 [2, 3] [nM]	ratio CB2 agonism over CB1 agonism ([2]; listed as 17)	EC50 ([2]; CB2 pEC50, hCB2-CHO-K1 cells) [nM]
CC(C)(C)c1nc2cc(S(=O)(=O)c3ccc(O)nc3)ccc2n1CC1CCOCC1 [Co. No. 1]	> 10000	251	>1995	1995	5.01		
CC(C)(C)c1nc2cc(S(=O)(=O)c3cc[n+]([O-])cc3)ccc2n1CC1CCOCC1 [Co. No. 3]	692	203			1.74		
CC(=O)c1ccc(S(=O)(=O)c2ccc3c(c2)nc(C(C)(C)C)n3CC2CCOCC2)nc1 [Co. No. 4]	3240	> 120	1679	1679	1.91		
Cc1nc(-c2csc(S(=O)(=O)c3ccc4c(c3)nc(C(C)(C)C)n4CC3CCOCC3)c2)no1 [Co. No. 5]	257	192 to 193	676		0.372		
CC(C)(C)c1nc2cc(S(=O)(=O)c3ccc(S(=O)(=O)N4CCOCC4)s3)ccc2n1CC1CCOCC1 [Co. No. 7]	> 10000	198	>5495		1.82		
CC(C)(C)c1nc2cc(S(=O)(=O)c3ccnc(O)c3)ccc2n1CC1CCOCC1 [Co. No. 8]	4680	> 300	1514	1514	3.09		
CC(C)(C)c1nc2cc(S(=O)(=O)c3cc(Cl)cc(Cl)n3)ccc2n1CC1CCOCC1 [Co. No. 10]	9550	137.43	12883	12883	0.741		
COc1ccc(S(=O)(=O)c2ccc3c(c2)nc(C(C)(C)C)n3CC2CCOCC2)nn1 [Co. No. 11]	60.3	174 to 180	48		1.26		
CC(C)(C)c1nc2cc(S(=O)(=O)c3ccc(C(N)=O)o3)ccc2n1CC1CCOCC1 [Co. No. 12]	468	234.8	302	302	1.55		
CC(C)(C)c1nc2cc(S(=O)(=O)c3ccnc(C(N)=O)c3)ccc2n1CC1CCOCC1 [Co. No. 16]	851	247.1	359		2.34		
CC(C)(C)c1nc2cc(S(=O)(=O)c3ccnc(C#N)c3)ccc2n1CC1CCOCC1 [Co. No. 17]	9330	201.2		5821	1.58	5821	
CC(C)(C)c1nc2cc(S(=O)(=O)c3ccnc(Cl)c3)ccc2n1CC1CCOCC1 [Co. No. 18]	631	201	933		0.676		
CC(C)(C)c1nc2cc(S(=O)(=O)c3ccnc(N)c3)ccc2n1CC1CCOCC1 [Co. No. 19]	724	235.9	638	638	1.12		
CC(C)(C)c1nc2cc(S(=O)(=O)c3ccc(S(C)(=O)=O)o3)ccc2n1CC1CCOCC1 [Co. No. 20]	437	165.2	347	346	1.26		
CC(C)(C)c1nc2cc(S(=O)(=O)c3cc[n+]([O-])cc3C(F)(F)F)ccc2n1CC1CCOCC1 [Co. No. 21]		205.8			3.8		
CC(O)c1ccc(S(=O)(=O)c2ccc3c(c2)nc(C(C)(C)C)n3CC2CCOCC2)nc1 (centres unmarked) [Co. No. 42]		177 to 179			3.98		0.631
CC(C)(C)c1nc2cc(S(=O)(=O)c3ccn(/C(F)=C\I)c(=O)c3)ccc2n1CC1CCOCC1 [Co. No. 91]		164.4	1995		5.01		
